Experiment [1] addresses His-GST-TVMV-hRIPK1(1-324) (Homo sapiens (Human), UniProt Q13546). Nature of the experiment: RIPK1 HTRF Binding Assay. The note with it: HTRF binding, 1 h at rt, read-out: RIPK1 (IC50). The gist of the method:
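HTRF probe-displacement binding: 1 nM His-GST-TVMV-hRIPK1(1-324) (baculovirus construct), 90.6 nM probe, 0.2 nM anti-GST-Tb in 20 mM HEPES, 10 mM MgCl2, 0.015% Brij-35, 4 mM DTT, 0.05 mg/mL BSA. Incubated 1 h at rt; FRET 520/495 nm ratio, inhibition relative to DMSO-only wells.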
(In general: TR-FRET usually uses a lanthanide donor and a delayed reading to cut background.)

Experiment [2] has as its system MLKL phosphorylation in HT29-L23 human colorectal adenocarcinoma cells. Put plainly: MLKL Phosphorylation High-Content Assay. The format is cell-based. The note with it: 6 h, necroptosis induced with TNFα, SMAC mimetic and Z-VAD, read-out: pMLKL (IC50). The gist of the method:
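HT29-L23 cells pretreated 30 min at 37 °C with compound (6.25 to 0.106 μM final), then necroptosis induced with TNFα 35 ng/mL, SMAC mimetic 700 nM and Z-VAD 140 nM for 6 h. Fixed cells immunostained for MLKL pS358 and imaged; IC50 and Ymax from 4-parameter logistic fit.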

Structures can show the parent of a compound that is named as a salt. Where two headings read alike, the source gives them in different places.

Usually IC50 stands for the concentration at which inhibition is half-maximal.

His-GST-TVMV-hRIPK1(1-324), sequence (Q13546 1-324): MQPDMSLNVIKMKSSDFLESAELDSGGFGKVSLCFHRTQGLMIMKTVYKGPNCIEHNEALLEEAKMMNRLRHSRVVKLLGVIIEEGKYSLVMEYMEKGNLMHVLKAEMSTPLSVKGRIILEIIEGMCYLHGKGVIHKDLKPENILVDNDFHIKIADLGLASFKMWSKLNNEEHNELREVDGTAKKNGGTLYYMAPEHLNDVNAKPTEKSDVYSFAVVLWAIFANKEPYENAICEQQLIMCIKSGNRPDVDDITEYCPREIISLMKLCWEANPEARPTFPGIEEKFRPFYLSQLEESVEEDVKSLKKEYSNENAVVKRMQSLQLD

Consider `Cc1ncc(-c2ccc3nc(NC(=O)CO)cn3n2)cc1C(=O)N[C@H](C)c1cc(C(F)(F)F)ccc1F` [Example 182, N-[(1R)-1-[2-fluoro-5-(trifluoromethyl)phenyl]ethyl]-5-[2-(2-hydroxyacetamido)imidazo [1,2-b]pyridazin-6-yl]-2-methylpyridine-3-carboxamide, TFA], for which the IC50 came out at 272 nM in experiment [1] and 455 nM in experiment [2] (Homo sapiens).
On to `COc1nc(C)c(-c2ccc3nc(NC(C)=O)cn3n2)cc1C(=O)NCc1cccnc1OCC1CCC1` [Example 314, N-{[2-(cyclobutylmethoxy)pyridin-3-yl]methyl}-5-{2-acetamidoimidazo[1,2-b]pyridazin-6-yl}-2-methoxy-6-methylpyridine-3-carboxamide], for which the IC50 in experiment [1] is 5 nM; in experiment [2] (Homo sapiens), 3 nM.
For `CC(=O)Nc1cn2nc(-c3cc(C(=O)NCC[C@@H](O)c4ccc(Cl)cc4)c(C)cc3C)ccc2n1` [Example 382, N-[(3R)-3-(4-chlorophenyl)-3-hydroxypropyl]-5-{2-acetamidoimidazo [1,2-b]pyridazin-6-yl}-2,4-dimethylbenzamide], in that order: 4 nM and 2 nM.
With `COc1ncc(-c2ccc3nc(NC(C)=O)cn3n2)cc1C(=O)NCc1c(F)cccc1OCC(F)(F)F` [Example 102, 5-{2-acetamidoimidazo[1,2-b]pyridazin-6-yl}-N-{[2-fluoro-6-(2,2,2-trifluoroethoxy)phenyl]methyl}-2-methoxypyridine-3-carboxamide], the half-inhibitory concentration (IC50) in experiment [1] was 7 nM; in experiment [2] (Homo sapiens), 10 nM.
With `COCC(=O)Nc1cn2nc(-c3cnc(OC)c(C(=O)NCc4cc(F)cc(F)c4OCC4CC4)c3)ccc2n1` [Example 261, N-{[2-(cyclopropylmethoxy)-3,5-difluorophenyl]methyl}-2-methoxy-5-[2-(2-methoxyacetamido)imidazo[1,2-b]pyridazin-6-yl]pyridine-3-carboxamide, TFA], the half-inhibitory concentration (IC50) worked out at 7 nM in experiment [1] and 8 nM in experiment [2].
As to `[2H]C([2H])([2H])Oc1ncc(-c2ccc3nc(NC(C)=O)cn3n2)cc1C(=O)NCc1cc(F)cc(F)c1OC1CCOCC1` [Example 50, N-{[3,5-difluoro-2-(oxan-4-yloxy)phenyl]methyl}-5-{2-acetamidoimidazo[1,2-b]pyridazin-6-yl}-2-(D3)methoxypyridine-3-carboxamide], the IC50 in experiment [1] and in experiment [2] (Homo sapiens) was 2 nM throughout.
For the molecule `COc1cc(F)c(-c2ccc3nc(NC(C)=O)cn3n2)cc1C(=O)NCc1c(F)cccc1OC` [Example 420, 5-{2-acetamidoimidazo [1,2-b]pyridazin-6-yl}-4-fluoro-N-[(2-fluoro-6-methoxyphenyl)methyl]-2-methoxybenzamide], the IC50 in experiment [1] was 90 nM; in experiment [2] (Homo sapiens) it was 77 nM.
On to `CC(=O)Nc1cn2nc(-c3cnc(C)c(C(=O)Nc4cn(Cc5ccc(Cl)cc5)cn4)c3)ccc2n1` [Example 349, N-{1-[(4-chlorophenyl)methyl]-1H-imidazol-4-yl}-5-{2-acetamidoimidazo[1,2-b]pyridazin-6-yl}-2-methylpyridine-3-carboxamide], for which the IC50 in experiment [1] is 51 nM; in experiment [2] (Homo sapiens), 424 nM.
Consider `COc1nc(C)c(-c2ccc3nc(NC(C)=O)cn3n2)cc1C(=O)NCc1ccccc1OCC1CC1` [Example 318, N-{[2-(cyclopropylmethoxy)phenyl]methyl}-5-{2-acetamidoimidazo[1,2-b]pyridazin-6-yl}-2-methoxy-6-methylpyridine-3-carboxamide], for which the half-maximal inhibitory concentration (IC50) in experiment [1] is 3 nM; in experiment [2] (Homo sapiens), 2 nM.
Consider `COc1nc(C)c(-c2ccc3nc(NC(C)=O)cn3n2)cc1C(=O)NC(C)c1cc(OC(F)(F)F)ccc1F` (stereo not drawn) [Example 278, 5-{2-acetamidoimidazo[1,2-b]pyridazin-6-yl}-N-{1-[2-fluoro-5-(trifluoromethoxy)phenyl]ethyl}-2-methoxy-6-methylpyridine-3-carboxamide, TFA], for which the half-inhibitory concentration (IC50) is 6 nM in experiment [1] (TFA) and 64 nM in experiment [2] (TFA).
With `CCC(=O)Nc1cn2nc(-c3cnc(OC)c(C(=O)NCc4cc(OCC5CC5)ccc4F)c3)ccc2n1` [Example 250, N-{[5-(cyclopropylmethoxy)-2-fluorophenyl]methyl}-2-methoxy-5-{2-propanamidoimidazo[1,2-b]pyridazin-6-yl}pyridine-3-carboxamide], the IC50 in experiment [1] is 18 nM; in experiment [2] (Homo sapiens) it was 61 nM.
Take `COCC(=O)Nc1cn2nc(-c3cnc(OC)c(C(=O)NCc4ccccc4OC(F)(F)F)c3)ccc2n1` [Example 3, 2-methoxy-5-[2-(2-methoxyacetamido)imidazo[1,2-b]pyridazin-6-yl]-N-{[2-(trifluoromethoxy)phenyl]methyl}pyridine-3-carboxamide]: the IC50 in experiment [1] turned out to be 30 nM; in experiment [2] (Homo sapiens), 295 nM.
The corresponding values for `[2H]C([2H])(NC(=O)c1cnc(C)c(-c2ccc3nc(NC(C)=O)cn3n2)c1)c1cc(OC(F)(F)F)ccc1F` [Example 230, 5-{2-acetamidoimidazo[1,2-b]pyridazin-6-yl}-N-{[2-fluoro-5-(trifluoromethoxy)phenyl](deutero)methy 1}-6-methylpyridine-3-carboxamide] are 19 nM and 90 nM.
Regarding `CC(=O)Nc1cn2nc(-c3cc(C(=O)NCc4cccc(OC(F)(F)F)c4)c(C)nc3C)ccc2n1` [Example 88, 5-{2-acetamidoimidazo[1,2-b]pyridazin-6-yl}-2,6-dimethyl-N-{[3-(trifluorometh-oxy)phenyl]methyl}pyridine-3-carboxamide], the results for the IC50 in experiment [1] and in experiment [2] (Homo sapiens) were 25 nM and 42 nM, respectively.
Regarding `COc1nc(C)c(-c2ccc3nc(NC(C)=O)cn3n2)cc1C(=O)N(C)Cc1cccc(OC(F)(F)F)c1` [Example 281, 5-{2-acetamidoimidazo[1,2-b]pyridazin-6-yl}-2-methoxy-N,6-dimethyl-N-{[3-(trifluoromethoxy)phenyl]methyl}pyridine-3-carboxamide], the IC50 amounted to 6 nM in experiment [1] and 4 nM in experiment [2] (Homo sapiens).
The corresponding values for `[2H]C([2H])(NC(=O)c1cc(-c2ccc3nc(NC(C)=O)cn3n2)c(C)nc1C)c1cc(F)cc(F)c1OC1CCOCC1` [Example 66, N-{[3,5-difluoro-2-(oxan-4-yloxy)phenyl](deutero)methyl}-5-{2-acetamidoimidazo[1,2-b]pyridazin-6-yl}-2,6-dimethylpyridine-3-carboxamide] are 9 nM and 8 nM.
Take “5-{2- acetamidoimidazo [1,2-b]pyridazin- 6-yl}-N-{[2- fluoro-5- (trifluoromethoxy) phenyl] (Â^2Hâ,,)methyl}-2- methylbenzamide [Example 426]”: the figures for the IC50 in experiment [1] and in experiment [2] were 1 nM and 7 nM, respectively.
Consider `CC(=O)Nc1cn2nc(-c3ccc(Cl)c(C(=O)NCC[C@H](O)c4ccc(Cl)cc4)c3F)ccc2n1` [Example 390, 6-chloro-N-[(3S)-3-(4-chlorophenyl)-3-hydroxypropyl]-3-{2-acetamidoimidazo [1,2-b]pyridazin-6-yl}-2-fluorobenzamide], for which the half-maximal inhibitory concentration (IC50) was found to be 5 nM in experiment [1] and 3 nM in experiment [2] (Homo sapiens).
For `COc1ncc(-c2ccc3nc(NC(C)=O)cn3n2)cc1C(=O)NC[C@H]1C[C@@H]1c1ccc(F)cc1` [Example 161, 5-{2-acetamidoimidazo[1,2-b]pyridazin-6-yl}-N-{[(1S,2S)-2-(4-fluorophenyl)cyclopropyl]methyl}-2-methoxypyridine-3-carboxamide], in that order: 145 nM and 311 nM.
`Cc1ncc(-c2ccc3nc(NC(=O)CN(C)C)cn3n2)cc1C(=O)N[C@H](C)c1cc(OC(F)(F)F)ccc1F` [Example 338, 5-{2-[2-(dimethylamino)-acetamido]-imidazo[1,2-b]pyridazin-6-yl}-N-[(1R)-1-[2-fluoro-5-(trifluoromethoxy)-phenyl]ethyl]-2-methylpyridine-3-carboxamide]: the concentration for half-maximal inhibition (IC50) was 21 nM in experiment [1] and 50 nM in experiment [2] (Homo sapiens).
Turning to `COc1ncc(-c2ccc3nc(NC(C)=O)cn3n2)cc1C(=O)N[C@H](C)c1ccccc1C(F)(F)F` [Example 104, 5-{2-acetamidoimidazo[1,2-b]pyridazin-6-yl}-2-methoxy-N-[(1R)-1-[2-(trifluoromethyl)phenyl]ethyl]pyridine-3-carboxamide], the values for the concentration for half-maximal inhibition (IC50) in experiment [1] and in experiment [2] (Homo sapiens) were 36 nM and 73 nM, respectively.
The corresponding values for `COc1c(F)cc(-c2ccc3nc(NC(C)=O)cn3n2)cc1C(=O)NCc1cc(OC(F)(F)F)ccc1F` [Example 371, 5-{2-acetamidoimidazo [1,2-b]pyridazin-6-yl}-3-fluoro-N-{[2-fluoro-5-(trifluoromethoxy)phenyl]methyl}-2-methoxybenzamide] are 5 nM and 15 nM.
Turning to `CC(=O)Nc1cn2nc(-c3ccc(C)c(C(=O)NCC(O)COc4ccccc4)c3)ccc2n1` (stereo not drawn) [Example 400, 5-{2-acetamidoimidazo [1,2-b]pyridazin-6-yl}-N-(2-hydroxy-3-phenoxypropyl)-2-methylbenzamide], the IC50 in experiment [1] and in experiment [2] (Homo sapiens) was 11 nM each time.
Consider `CC(=O)Nc1cn2nc(-c3ccc(C)c(C(=O)NCc4ccc(F)c(F)c4C(=O)N4CCC(F)(F)C4)c3F)ccc2n1` [Example 411, N-{[2-(3,3-difluoropyrrolidine-1-carbonyl)-3,4-difluorophenyl]methyl}-3-{2-acetamidoimidazo [1,2-b]pyridazin-6-yl}-2-fluoro-6-methylbenzamide], for which the 50% inhibitory concentration (IC50) in experiment [1] came to 9 nM; in experiment [2] (Homo sapiens), 25 nM.

(Values after US11440913B2, “Aminoimidazopyridazines as kinase inhibitors” (BRISTOL-MYERS SQUIBB COMPANY, priority 2017, dated 2022).)
